This is an account of results in patent US20240228512A1, “ACYCLIC OXAZEPINE COMPOUNDS COMPRISING A 6-AZA MOIETY AND USES THEREOF” (Genentech, Inc., priority 2022, published 2024).

One assay relates to H1975 cells. Briefly: H1975 CTG proliferation assay. In kind it is cell-based. Particulars: Homo sapiens, NCI-H1975, H1975, CTG.
The subject of the next assay is HPAC cells. The experiment in a line: HPAC 3D proliferation assay (CellTiter-Glo). Particulars: Homo sapiens, 168 h, 3D culture, 7 days, read-out: HPAC CTG IC50. Type of assay: cell-based. The gist of the method: (§1)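 Cells were seeded in ultra-low attachment plates (3000 or 1000 cells/well for 96- or 384-well format) in RPMI-1640, 10% FBS, 2 mM L-glutamine and cultured overnight at 37 °C/5% CO2 to form spheroids. Compounds were added by 333-fold dilution from DMSO for 7 days. Viability was read as CellTiter-Glo 3D ATP luminescence, with IC50 from a 4-parameter logistic fit.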

The test system of a further assay is SW620 PERK. The experiment in a line: SW620 PERK assay. Type of assay: cell-based. The conditions noted are these: Homo sapiens, SW-620, SW620, PERK.
In the next assay the test system is SW620 cells. The experiment in a line: SW620 3D proliferation assay (CellTiter-Glo). In kind it is cell-based. The conditions noted are these: Homo sapiens, SW-620, 168 h, SW620, 3D culture, 7 days, read-out: SW620 CTG IC50. The gist of the method:
as §1

For a further assay, the system named is SW480 cells. The experiment in a line: SW480 CTG proliferation assay. Type of assay: cell-based. Particulars: Homo sapiens.
Assay [1] has as its target recombinant human KRAS wild type (SOS1-mediated nucleotide exchange) (Homo sapiens (Human), UniProt P01116). The experiment in a line: KRAS biochemical assay, BODIPY-GDP exchange TR-FRET (WT-GDP HTRF).
For assay [2], the target named is recombinant human mutant KRas G12V (SOS1-mediated nucleotide exchange) (Homo sapiens (Human), UniProt P01116, G12V). The experiment in a line: KRAS biochemical assay, BODIPY-GDP exchange TR-FRET (G12V-GDP HTRF).
recombinant human mutant KRas G12V (SOS1-mediated nucleotide exchange), sequence (P01116-2 other isoform, or with tags, fused parts or gaps G12V): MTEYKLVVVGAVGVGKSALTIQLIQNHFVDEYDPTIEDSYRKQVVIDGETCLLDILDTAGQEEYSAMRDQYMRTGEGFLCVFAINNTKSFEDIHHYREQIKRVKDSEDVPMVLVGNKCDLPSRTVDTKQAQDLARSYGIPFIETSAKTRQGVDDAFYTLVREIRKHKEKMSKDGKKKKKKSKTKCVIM

recombinant human KRAS wild type (SOS1-mediated nucleotide exchange), sequence (P01116-2 other isoform, or with tags, fused parts or gaps): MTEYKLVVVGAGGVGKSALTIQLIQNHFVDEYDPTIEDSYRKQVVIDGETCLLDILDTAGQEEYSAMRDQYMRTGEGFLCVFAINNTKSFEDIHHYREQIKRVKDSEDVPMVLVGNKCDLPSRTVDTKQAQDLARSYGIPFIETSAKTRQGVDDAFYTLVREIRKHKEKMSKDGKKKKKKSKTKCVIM

On to `C[C@H](c1cccnc1N)N1CCOc2nc(-c3cccc4sc(N)nc34)c(F)c3nc(OC[C@@]45CCCN4C[C@H](F)C5)nc1c23` [Example 24, 4-(10-((R)-1-(2-aminopyridin-3-yl)ethyl)-4-fluoro-2-(((2R,7aS)-2-fluorotetrahydro-1H-pyrrolizin-7a(5H)-yl)methoxy)-9,10-dihydro-8H-7-oxa-1,3,6,10-tetraazacyclohepta[de]naphthalen-5-yl)benzo[d]thiazol-2-amine], for which the concentration for half-maximal inhibition (IC50) in the assay with H1975 cells came out at 5170 nM; in the assay with HPAC cells, 2000 nM; with SW620 PERK it was 466 nM; with SW620 cells, 1020 nM; in the assay on SW480 cells, 700 nM.

As for `C[C@H](c1cccnc1N)N1CCOc2nc(-c3cc(N)c(F)c(F)c3C(F)(F)F)c(F)c3nc(OC[C@@]45CCCN4C[C@H](F)C5)nc1c23` [Example 623, 3-((R)-1-(5-(5-amino-3,4-difluoro-2-(trifluoromethyl)phenyl)-4-fluoro-2-(((2R,7aS)-2-fluorotetrahydro-1H-pyrrolizin-7a(5H)-yl)methoxy)-8,9-dihydro-10H-7-oxa-1,3,6,10-tetraazacyclohepta[de]naphthalen-10-yl)ethyl)pyridin-2-amine], the IC50 in the assay with H1975 cells is 4300 nM; with HPAC cells, 14.1 nM; in the assay on SW620 PERK, 2.29 nM; in the assay with SW620 cells, 3.3 nM; with SW480 cells, 50 nM.

Turning to `Cc1c(F)c(N)c(F)c(-c2nc3c4c(nc(OC[C@@]56CCCN5C[C@H](F)C6)nc4c2F)N([C@H](C)c2cccnc2N)CCO3)c1C(F)(F)F` [Example 12, 3-((1R)-1-(5-(3-amino-2,4-difluoro-5-methyl-6-(trifluoromethyl)phenyl)-4-fluoro-2-(((2R,7aS)-2-fluorotetrahydro-1H-pyrrolizin-7a(5H)-yl)methoxy)-8,9-dihydro-10H-7-oxa-1,3,6,10-tetraazacyclohepta[de]naphthalen-10-yl)ethyl)pyridin-2-amine], the IC50 in the assay on H1975 cells worked out at 59.4 nM; in the assay with HPAC cells, 14.7 nM; with SW620 PERK, 1.62 nM; in the assay on SW620 cells, 5.63 nM; with SW480 cells it was 2.8 nM.

`C#Cc1cccc2cc(O)cc(-c3nc4c5c(nc(OC[C@@H]6CC[C@H]7COCCN76)nc5c3F)N([C@H](C)c3cccnc3N)CCO4)c12` [Example 17, 4-(10-((R)-1-(2-aminopyridin-3-yl)ethyl)-4-fluoro-2-(((6S,8aS)-hexahydro-1H-pyrrolo[2,1-c][1,4]oxazin-6-yl)methoxy)-9,10-dihydro-8H-7-oxa-1,3,6,10-tetraazacyclohepta[de]naphthalen-5-yl)-5-ethynyinaphthalen-2-ol]: the IC50 was found to be 9.15 nM with H1975 cells; 228 nM in the assay on HPAC cells; 4.33 nM in the assay with SW620 PERK; 13.7 nM in the assay on SW620 cells; 110 nM in the assay with SW480 cells.

For `C[C@H](c1cccnc1N)N1CCOc2nc(-c3cc(O)cc4cccc(F)c34)c(F)c3nc(OC[C@@]45CCCN4C[C@H](F)C5)nc1c23` [Example 25, 4-(10-((R)-1-(2-aminopyridin-3-yl)ethyl)-4-fluoro-2-(((2R,7aS)-2-fluorotetrahydro-1H-pyrrolizin-7a(5H)-yl)methoxy)-9,10-dihydro-8H-7-oxa-1,3,6,10-tetraazacyclohepta[de]naphthalen-5-yl)-5-fluoronaphthalen-2-ol], the IC50 came to 83.1 nM in the assay with H1975 cells; 250 nM in the assay with HPAC cells; 27.6 nM in the assay with SW620 PERK; 8.81 nM with SW620 cells; 110 nM in the assay on SW480 cells.

For the molecule `Cc1c(F)c(N)cc(-c2nc3c4c(nc(OC[C@@]56CCCN5C[C@H](F)C6)nc4c2F)N([C@H](C)c2cncnc2N)CCO3)c1C(F)(F)F` [Example 617, 5-((R)-1-(5-(5-amino-4-fluoro-3-methyl-2-(trifluoromethyl)phenyl)-4-fluoro-2-(((2R,7aS)-2-fluorotetrahydro-1H-pyrrolizin-7a(5H)-yl)methoxy)-8,9-dihydro-10H-7-oxa-1,3,6,10-tetraazacyclohepta[de]naphthalen-10-yl)ethyl)pyrimidin-4-amine], the IC50 with H1975 cells worked out at 24.4 nM; in assay [1] it was 0.31 nM; with HPAC cells, 239 nM; in the assay on SW620 PERK, 28.8 nM; in assay [2] it was 0.11 nM; with SW620 cells, 38 nM.

`Cc1c(F)c(N)nc(-c2nc3c4c(nc(OC[C@@]56CCCN5C[C@]5(CC5(F)F)C6)nc4c2F)N([C@H](C)c2cccnc2N)CCO3)c1C(F)(F)F` [Example 614]: the IC50 with H1975 cells was found to be 1960 nM; in assay [1] it was 0.16 nM; in the assay with HPAC cells, 11.5 nM; in the assay with SW620 PERK it was 2.42 nM; in assay [2] it was 0.12 nM; in the assay on SW620 cells, 1.75 nM.

Regarding `Cc1nc(N)cc(-c2nc3c4c(nc(OC[C@@]56CCN5C[C@]5(CC5(F)F)C6)nc4c2F)N([C@H](C)c2cccnc2N)CCO3)c1C(F)(F)F` [Example 605], the IC50 in the assay on H1975 cells amounted to 4 nM; in assay [1] it was 0.19 nM; with HPAC cells, 94 nM; in the assay with SW620 PERK it was 11.9 nM; in assay [2] it was 0.14 nM; in the assay on SW620 cells it was 11.3 nM.

In the case of `Cc1nc(N)cc(-c2nc3c4c(nc(OC[C@@]56CCCN5C[C@H](F)C6)nc4c2Cl)N([C@H](C)c2cccnc2N)CCO3)c1C(F)(F)F` [Example 626, 4-(10-((R)-1-(2-aminopyridin-3-yl)ethyl)-4-chloro-2-(((2R,7aS)-2-fluorotetrahydro-1H-pyrrolizin-7a(5H)-yl)methoxy)-9,10-dihydro-8H-7-oxa-1,3,6,10-tetraazacyclohepta[de]naphthalen-5-yl)-6-methyl-5-(trifluoromethyl)pyridin-2-amine], the IC50 turned out to be 262 nM with H1975 cells; 0.67 nM in assay [1]; 160 nM in the assay on HPAC cells; 10.5 nM in the assay on SW620 PERK; 0.16 nM in assay [2]; 27.1 nM in the assay with SW620 cells.

With `Cc1c(F)c(N)nc(-c2nc3c4c(nc(OC[C@@]56CCCN5C[C@H](F)C6)nc4c2F)N([C@H](C)c2cncnc2N)CCO3)c1C(F)(F)F` [Example 613, 5-((R)-1-(5-(6-amino-5-fluoro-4-methyl-3-(trifluoromethyl)pyridin-2-yl)-4-fluoro-2-(((2R,7aS)-2-fluorotetrahydro-1H-pyrrolizin-7a(5H)-yl)methoxy)-8,9-dihydro-10H-7-oxa-1,3,6,10-tetraazacyclohepta[de]naphthalen-10-yl)ethyl)pyrimidin-4-amine], the IC50 in the assay on H1975 cells was determined as 160 nM; in assay [1], 1.45 nM; in the assay on HPAC cells, 1520 nM; with SW620 PERK, 146 nM; in assay [2] it was 0.24 nM; in the assay with SW620 cells, 290 nM.

As for `CCc1cccc2cc(O)cc(-c3nc4c5c(nc(OC[C@@]67CCCN6C[C@H](F)C7)nc5c3F)N([C@H](C)c3cccnc3N)CCO4)c12` [Example 27, 4-(10-((R)-1-(2-aminopyridin-3-yl)ethyl)-4-fluoro-2-(((2R,7aS)-2-fluorotetrahydro-1H-pyrrolizin-7a(5H)-yl)methoxy)-9,10-dihydro-8H-7-oxa-1,3,6,10-tetraazacyclohepta[de]naphthalen-5-yl)-5-ethylnaphthalen-2-ol], the IC50 in the assay with H1975 cells worked out at 2.59 nM; with HPAC cells, 55.2 nM; in the assay with SW620 cells it was 1.68 nM; with SW480 cells, 31 nM.
